“Also recorded” adds a separate entry of the source.
Key:
[1] = tested on: BJ-derived cell lines (BJ-TERT/LT/ST/RAS^V12 cells); experiment: Vi-Cell analysis (trypan blue exclusion); assay type: cell-based, human; details: 24 hours
Description: 200,000 cells were seeded in 6-well plates and treated with the indicated amount of 2-fold dilution series concentration of a candidate compound in 2 mL BJ growth medium. After 24 hours, cells were released with trypsin/EDTA, harvested in 1.1 mL growth medium, and transferred to a Vi-Cell (Beckman Coulter) disposable cup. After, trypan blue staining, 100 images of sample were taken and analysis of the images was carried out automatically by a Vi-Cell cell viability analyzer (Beckman Coulter).

MOLT-4 = experiment: NCI60 anti-cancer screening; details: for GI50 / CC50: Homo sapiens; for GI50 / GI 100%: MOLT-4; for CC50: MOLT-4, read-out: LC 50%; for GI 100%: Leukemia
ACHN = experiment: NCI60 anti-cancer screening; details: for GI50 / CC50: Homo sapiens; for CC50: read-out: LC 50%; for GI 100%: Renal Cancer
[2] = tested on: BJ-TERT/LT/ST/RAS^V12 cells; experiment: Counter screening with biologically active compounds; assay type: cell-based, human; details: for biologically active compounds that suppress compound-induced cell death: 36 bioactive compounds of Table 1, 24 hours, alamar blue
Description: Biologically active compounds listed in Table 1 were dissolved in BJ medium at 10× final concentration and aliquoted into eppendorf tubes. 100 μL of each 10× solution was transferred to column 1 to column 12 or column 13 to column 24 of a single row in a 384-well daughter plate. This plate was designated as ‘10× biologically active plate’. In order to prepare lethal compound solution, Erastin and compounds 3, 6, 27, and 36 were dissolved in BJ medium at a concentration of 100 μg/mL, 400 μg/mL, 400 μg/mL, 100 μg/mL, and 200 μg/mL, respectively. Empty daughter plates were filled with 50 μL BJ media except for columns 5 and 13 where 100 μL of each lethal solution was transferred. After lethal solution transfer, 2-fold dilution series across columns 5 to 12 and columns 13 to 20 was made by transferring 50 μL compound solution to the next column successively (8-point dilution series), with mixing. These five plates were each designated ‘10× lethal plate’. Five assay plates were prepared by seeding 4,000 BJ-TERT/LT/ST/RAS^V12 cells per well in 32 μL of growth media in black, clear bottom 384-well plates. Cells in assay plates were first treated with biologically active compounds by transferring 4 μL from the 10× inhibitor plate. Cells were then treated with each lethal compound in a 2-fold dilution series by transferring 4 μL solution from each 10× lethal plate. […] Percent growth inhibition (% GI) was calculated by the following formula using fluorescence intensity values: % GI=100*(1−(X−N)/([…])) wherein X is the fluorescent intensity value measured at 590 nm for cells treated with biologically active compound and lethal compound; N is the fluorescent intensity value measured at 590 nm for a control containing no cells (i.e. biologically active compound in growth media); and P is the fluorescent intensity value measured at 590 nm for a control containing no lethal compound (i.e., cells treated with biologically active compound). Counter Screening with Iron Chelators

OVCAR-3 = experiment: cells; details: Homo sapiens; for GI50: OVCAR-3; for CC50: OVCAR-3, read-out: LC 50%
MDA-MB-435 = experiment: NCI60 anti-cancer screening; details: for GI50 / CC50: Homo sapiens; for GI50 / GI 100%: MDA-MB-435; for CC50: MDA-MB-435, read-out: LC 50%; for GI 100%: Breast Cancer
T-47D = experiment: NCI60 anti-cancer screening; details: for GI50 / CC50: Homo sapiens, T47D; for CC50: read-out: LC 50%; for GI 100%: T-47D, Breast Cancer
PC-3 = experiment: NCI60 anti-cancer screening; details: for GI50 / CC50: Homo sapiens; for GI50 / GI 100%: PC-3; for CC50: PC-3, read-out: LC 50%; for GI 100%: Prostate Cancer
SNB-75 = experiment: NCI60 anti-cancer screening
COLO 205 = experiment: NCI60 anti-cancer screening; details: for GI 100% / GI50: COLO 205; for GI 100%: Colon Cancer; for GI50 / CC50: Homo sapiens; for CC50: COLO 205, read-out: LC 50%
SR = experiment: NCI60 anti-cancer screening; details: for GI50 / CC50: Homo sapiens; for CC50: read-out: LC 50%; for GI 100%: Leukemia
UACC-257 = experiment: NCI60 anti-cancer screening; details: for GI50 / CC50: Homo sapiens; for GI50 / GI 100%: UACC-257; for CC50: UACC-257, read-out: LC 50%; for GI 100%: Melanoma
RXF393 = experiment: NCI60 anti-cancer screening; details: for GI50 / CC50: Homo sapiens; for GI50: RXF 393; for CC50: RXF 393, read-out: LC 50%; for GI 100%: RXF393, Renal Cancer
[3] = tested on: BJ-TERT/LT/ST/RAS^V12 cells; experiment: Counter screening with iron chelators; assay type: cell-based, human; details: DFOM and three additional iron-binding compounds; 24 hours
Description: Cells were treated with iron chelators by transferring 4 μL of 1 mM deferoxamine mesylate (Calbiochem, cat.#252750), 500 μM compound 1a (Chembridge, cat.#5175092), 1 mM compound 2 (Ryan Scientific, cat.#LT01784723), or 100 μM compound 311 (Chembridge, cat.#5135701) in growth media to the assay plate. Then, 4 μL was transferred from the ‘10× lethal plate’ (described in ‘counter screening with biologically active compounds’) to the assay plate in order to induce cell death. Assay plates were incubated for 24 hours and alamar blue was added to the plates at a final concentration of 10%.

TK-10 = experiment: NCI60 anti-cancer screening; details: for GI50 / CC50: Homo sapiens; for GI50 / GI 100%: TK-10; for CC50: TK-10, read-out: LC 50%; for GI 100%: Renal Cancer
CCRF-CEM = experiment: NCI60 anti-cancer screening; details: for GI 100%: Leukemia
SF-539 = experiment: NCI60 anti-cancer screening; details: for GI50 / CC50: Homo sapiens; for GI50 / GI 100%: SF-539; for CC50: SF-539, read-out: LC 50%; for GI 100%: CNS Cancer
NCI-H23 = experiment: NCI60 anti-cancer screening; details: for GI50 / CC50: Homo sapiens; for GI50 / GI 100%: NCI-H23; for CC50: NCI-H23, read-out: LC 50%; for GI 100%: Non-small cell lung carcinoma

Q: Which “potency and selectivity by trypan blue exclusion (in words)” value [1] does the source give for COC(=O)c1ccc(C2c3[nH]c4ccccc4c3CC(C(=O)OC)N2C(=O)CCl)cc1 (stereo not drawn) [Compound 27] here?
A: confirmed Compound 27 cell growth inhibition activity and selectivity

Q: What about the GI50 (MOLT-4) of the same compound?
A: 1.02 µM

Q: What about the CC50 (MOLT-4) of the same compound?
A: 7.39 µM

Q: What about the “GI 100%” value (MOLT-4) of the same compound?
A: 2.74 µM

Q: What about the GI50 (ACHN) of the same compound?
A: 0.187 µM

Q: And the CC50 (ACHN)?
A: 3.25 µM

Q: What about the “GI 100%” value (ACHN) of the same compound?
A: 1.05 µM

Q: And the “effect of pan-caspase inhibitors (z-VAD-fmk, Boc-D-fmk) on compound-induced cell death” value [2]?
A: not blocked

Q: What about the “biologically active compounds that suppress compound-induced cell death” value [2] of the same compound?
A: GSH, L-Mim, TLCK, DFOM, SU6656, Ro31-8220, and U0126 were effective

Q: What about the GI50 (OVCAR-3) of the same compound?
A: 0.353 µM

Q: And the CC50 (OVCAR-3)?
A: 6.59 µM

Q: What about the GI50 (MDA-MB-435) of the same compound?
A: 1.71 µM

Q: What about the CC50 (MDA-MB-435) of the same compound?
A: 8.19 µM

Q: What about the “GI 100%” value (MDA-MB-435) of the same compound?
A: 3.74 µM

Q: What about the GI50 (T-47D) of the same compound?
A: 1.64 µM

Q: And the CC50 (T-47D)?
A: > 10 µM

Q: What about the “GI 100%” value (T-47D) of the same compound?
A: 5.16 µM

Q: And the GI50 (PC-3)?
A: 0.231 µM

Q: What about the CC50 (PC-3) of the same compound?
A: 3.29 µM

Q: And the “GI 100%” value (PC-3)?
A: 1.08 µM

Q: And the GI50 (SNB-75; Homo sapiens, SNB-75)?
A: 0.745 µM

Q: What about the CC50 (SNB-75; Homo sapiens, SNB-75, read-out: LC 50%) of the same compound?
A: > 10 µM

Q: And the “GI 100%” value (SNB-75; SNB-75, CNS Cancer)?
A: 3.06 µM

Q: What about the “GI 100%” value (COLO 205) of the same compound?
A: 3.44 µM

Q: And the GI50 (COLO 205)?
A: 1.67 µM

Q: What about the CC50 (COLO 205) of the same compound?
A: 7.07 µM

Q: And the GI50 (SR)?
A: 0.4 µM

Q: And the CC50 (SR)?
A: 6.58 µM

Q: And the “GI 100%” value (SR)?
A: 1.6 µM

Q: What about the GI50 (UACC-257) of the same compound?
A: 1.37 µM

Q: And the CC50 (UACC-257)?
A: > 10 µM

Q: What about the “GI 100%” value (UACC-257) of the same compound?
A: 7.46 µM

Q: And the GI50 (RXF393)?
A: 1.3 µM

Q: And the CC50 (RXF393)?
A: 6.93 µM

Q: What about the “GI 100%” value (RXF393) of the same compound?
A: 3 µM

Q: And the “effect of iron chelators on compound activity / induced cell death” value [3]?
A: suppressed by all of these iron chelators moderately; also recorded: significantly inhibited

Q: And the GI50 (TK-10)?
A: 1.9 µM

Q: What about the CC50 (TK-10) of the same compound?
A: 8.25 µM

Q: And the “GI 100%” value (TK-10)?
A: 3.96 µM

Q: And the GI50 (CCRF-CEM; Homo sapiens)?
A: 0.0195 µM

Q: What about the CC50 (CCRF-CEM; Homo sapiens, read-out: LC 50%) of the same compound?
A: 0.0953 µM

Q: And the “GI 100%” value (CCRF-CEM)?
A: 0.0431 µM

Q: And the GI50 (SF-539)?
A: 0.118 µM

Q: And the CC50 (SF-539)?
A: 0.492 µM

Q: And the “GI 100%” value (SF-539)?
A: 0.241 µM

Q: What about the GI50 (NCI-H23) of the same compound?
A: 1.15 µM

Q: What about the CC50 (NCI-H23) of the same compound?
A: 7.59 µM

Q: What about the “GI 100%” value (NCI-H23) of the same compound?
A: 2.95 µM

Q: Which results are given for CCc1c(O)c2c(c(O)c1O[C@H]1O[C@@H](COC(C)=O)[C@H](OC(C)=O)[C@@H](CC(C)=O)[C@@H]1OC(C)=O)C(=O)C(O[C@@H]1O[C@H](COC(C)=O)[C@@H](OC(C)=O)[C@H](OC(C)=O)[C@H]1OC(C)=O)=C(O[C@@H]1O[C@H](COC(C)=O)[C@@H](OC(C)=O)[C@H](OC(C)=O)[C@H]1OC(C)=O)C2=O [Compound 6]?
A: potency and selectivity by trypan blue exclusion (in words) [1]: confirmed the potency and selectivity; GI50 (MOLT-4): 0.783 µM; CC50 (MOLT-4): > 10 µM; GI 100% (MOLT-4): 3.91 µM; GI50 (ACHN): 8.76 µM; CC50 (ACHN): > 10 µM; GI 100% (ACHN): >10 µM; biologically active compounds that suppress compound-induced cell death [2]: only reduced glutathione (GSH) was able to inhibit; GI50 (OVCAR-3): 3.52 µM; CC50 (OVCAR-3): > 10 µM; GI50 (MDA-MB-435): 2.21 µM; CC50 (MDA-MB-435): 9.07 µM; GI 100% (MDA-MB-435): 4.38 µM; GI50 (T-47D): 4.53 µM; CC50 (T-47D): 9.35 µM; GI 100% (T-47D): 2.06 µM; GI50 (PC-3): 5.07 µM; CC50 (PC-3): > 10 µM; GI 100% (PC-3): >10 µM; GI 100% (COLO 205): 1.26 µM; GI50 (COLO 205): 0.232 µM; CC50 (COLO 205): 4.78 µM; GI50 (SR): 2.65 µM; CC50 (SR): > 10 µM; GI 100% (SR): 8.4 µM; GI50 (UACC-257): 2.78 µM; CC50 (UACC-257): > 10 µM; GI 100% (UACC-257): >10 µM; GI50 (RXF393): 0.652 µM; CC50 (RXF393): 6.6 µM; GI 100% (RXF393): 2.41 µM; GI50 (TK-10): 2.76 µM; CC50 (TK-10): > 10 µM; GI 100% (TK-10): >10 µM; GI50 (CCRF-CEM; Homo sapiens): 0.115 µM; GI 100% (CCRF-CEM): 0.422 µM; GI50 (SF-539): 2.32 µM; CC50 (SF-539): 9.59 µM; GI 100% (SF-539): 4.71 µM; GI50 (NCI-H23): 4.17 µM; CC50 (NCI-H23): > 10 µM; GI 100% (NCI-H23): >10 µM
